According to patent publication US20240325398A1, “COMBINATION THERAPIES” (Infinity Pharmaceuticals, Inc., priority 2014, published 2024):

Key:
[1] = tested on: HH; test: Combination study, ATPLite 72 h, dose matrix (Synergy Score, CI50); assay type: cell-based; conditions: combination with Compound 1
Experimental: The method is described as follows.
Additive effect is CI=1.0. […] Antagonistic effect is CI>1.0.
The Synergy Score is calculated as: […]

[2] = tested on: HBL-1; test: as above; conditions: combination with Compound 1, 72 h
Experimental: (§1) Cells are thawed from a liquid nitrogen preserved state. Once cells have been expanded and divide at their expected doubling times, screening begins. Cells are seeded in growth media in either black 1536-well or 384-well tissue culture treated plates. Cells are then equilibrated in assay plates via centrifugation and placed in incubators attached to the Dosing Modules at 37° C. for 24 hours before treatment. […] These Tzero (To) plates are read using ultra-sensitive luminescence on Envision plate readers (Perkin Elmer). Treated assay plates are incubated with compound for 72 hours. After 72 hours, plates are developed for endpoint analysis using ATPLite. All data points are collected via automated processes, quality controlled and analyzed using Zalicus software.
(§2) where T is treated cell count and V is untreated (vehicle) cell count (at 72 hours). I ranges from 0% (when T=V) to 100% (when T=0). […] The measure of effect in the experiment can be the inhibition of cellular response relative to the untreated level (vehicle alone). […] The inhibition ranges from 0% at the untreated level to 100% when T=0. Inhibition levels are negative for agents that actually increase levels. Other effect measures, such as an activity ratio r=T/V may be more appropriate for some assays. When activity ratios (e.g, fold increase over stimulated control) are being used, the effect can be measured using an induction 1=ln(T/V). With this definition, all effect expressions are the same as for inhibition.
(§3) Growth Inhibition (GI) is used as a measure of cell viability. […] A GI reading of 100% represents complete growth inhibition—T72 compound-treated and T0 vehicle signals are matched. […] A GI reading of 200% represents complete death of all cells in the culture well. Compounds reaching an activity plateau of GI 200% are considered cytotoxic. GI is calculated by applying the following test and equation:
(§4) Combination analysis data were collected in a 6×6 dose matrix. Synergy is calculated by comparing a combination's response to those of its single compound, against the drug-with-itself dose-additive reference model. Deviations from dose additivity may be assessed visually on an isobologram or numerically with a Combination Index (CI). […] Additive effect is CI=1.0. […] Antagonistic effect is CI>1.0.
(§5) To measure combination effects in excess of Loewe additivity, a scalar measure to characterize the strength of synergistic interaction termed the Synergy Score is devised. The Synergy Score is calculated as:
(§6) The fractional inhibition for each component agent and combination point in the matrix is calculated relative to the median of all vehicle-treated control wells. The Synergy Score equation integrates the experimentally-observed activity volume at each point in the matrix in excess of a model surface numerically derived from the activity of the component agents using the Loewe model for additivity. Additional terms in the Synergy Score equation (above) are used to normalize for various dilution factors used for individual agents and to allow for comparison of synergy scores across an entire experiment. The inclusion of positive inhibition gating or an Idata multiplier removes noise near the zero effect level, and biases results for synergistic interactions at that occur at high activity levels.
(§7) Loewe Volume (Loewe Vol) is used to assess the overall magnitude of the combination interaction in excess of the Loewe additivity model. Loewe Volume is particularly useful when distinguishing synergistic increases in a phenotypic activity (positive Loewe Volume) versus synergistic antagonisms (negative Loewe Volume). […] This model defines additivity as a non-synergistic combination interaction where the combination dose matrix surface should be indistinguishable from either drug crossed with itself. The calculation for Loewe additivity is:

[3] = tested on: OCI-Ly3; test: as above; conditions: combination with Compound 1; OCI-Ly3; 72 h
[4] = tested on: U-2932; test: as above; conditions: combination with Compound 1, 72 h
[5] = tested on: TMD8; test: as above; conditions: combination with Compound 1; TMD8; 72 h
[6] = tested on: OCI-Ly7; test: as above; conditions: combination with Compound 1, 72 h
[7] = tested on: SU-DHL-4-epst; test: as above; conditions: combination with Compound 1, 72 h
[8] = tested on: DOHH-2; test: as above; conditions: combination with Compound 1, 72 h
[9] = tested on: Farage; test: as above; conditions: combination with Compound 1; Farage; 72 h
[10] = tested on: SU-DHL-10-epst; test: as above; conditions: combination with Compound 1, 72 h
Experimental: as §1
The measure of effect in the experiment can be the inhibition of cellular response relative to the untreated level (vehicle alone). […] The inhibition ranges from 0% at the untreated level to 100% when T=0. Inhibition levels are negative for agents that actually increase levels.
as §3, §4, §5, §6, §7

[11] = tested on: RL; test: as above; conditions: combination with Compound 1, 72 h
[12] = tested on: KARPAS-422; test: as above; conditions: combination with Compound 1, 72 h
[13] = tested on: WSU-NHL; test: as above; conditions: combination with Compound 1, 72 h
[14] = tested on: KARPAS-299; test: as above; conditions: combination with Compound 1
Experimental: as §1, §2, §3, §4, §5, §6
(§8) Loewe Volume (Loewe Vol) is used to assess the overall magnitude of the combination interaction in excess of the Loewe additivity model. Loewe Volume is particularly useful when distinguishing synergistic increases in a phenotypic activity (positive Loewe Volume) versus synergistic antagonisms (negative Loewe Volume). […] This model defines additivity as a non-synergistic combination interaction where the combination dose matrix surface should be indistinguishable from either drug crossed with itself.

[15] = tested on: GRANTA-519; test: as above; conditions: combination with Compound 1
[16] = tested on: Jeko-1; test: as above; conditions: combination with Compound 1
Experimental: as §1, §2, §3, §4, §5, §6, §8

[17] = tested on: Mino; test: as above; conditions: combination with Compound 1
[18] = tested on: NCI-H929; test: as above; conditions: combination with Compound 1
[19] = as above; conditions: combination with Compound 1; OPM-2
Experimental: as §1, §2, §3, §4, §5, §6, §8

[20] = tested on: OMP-2; test: as above; conditions: combination with Compound 1; OPM-2
Experimental: as §1, §2, §3, §4, §5, §6, §8

[21] = tested on: RPMI-8226; test: as above; conditions: combination with Compound 1

## CS(=O)(=O)N1CCN(Cc2cc3nc(-c4cccc5[nH]ncc45)nc(N4CCOCC4)c3s2)CC1 [GDC-0941, 2-(1H-indazol-4-yl)-6-((4-(methylsulfonyl)piperazin-1-yl)methyl)-4-morpholinothieno[3,2-d]pyrimidine]
[1]
  CI50 growth inhibition: W (W=≥1)
  CI50 inhibition: W (W=≥1)
  Synergy Score growth inhibition: A1 (A1=0.0001 to <1)
  Synergy Score inhibition: A1 (A1=0.0001 to <1)
[2]
  CI50 growth inhibition: U (U=0.7 to <1)
  CI50 inhibition: W (W=≥1)
  Synergy Score growth inhibition: A2 (A2=1 to <3)
  Synergy Score inhibition: A1 (A1=0.0001 to <1)
[3]
  CI50 growth inhibition: U (U=0.7 to <1)
  CI50 inhibition: W (W=≥1)
  Synergy Score growth inhibition: A1 (A1=0.0001 to <1)
  Synergy Score inhibition: A1 (A1=0.0001 to <1)
[4]
  CI50 growth inhibition: T (T=0.5 to <0.7)
  CI50 inhibition: W (W=≥1)
  Synergy Score growth inhibition: A1 (A1=0.0001 to <1)
  Synergy Score inhibition: A1 (A1=0.0001 to <1)
[5]
  CI50 growth inhibition: U (U=0.7 to <1)
  CI50 inhibition: W (W=≥1)
  Synergy Score growth inhibition: A3 (A3=>3)
  Synergy Score inhibition: A2 (A2=1 to <3)
[6]
  CI50 growth inhibition: U (U=0.7 to <1)
  CI50 inhibition: W (W=≥1)
  Synergy Score growth inhibition: A1 (A1=0.0001 to <1)
  Synergy Score inhibition: A1 (A1=0.0001 to <1)
[7]
  CI50 growth inhibition: T (T=0.5 to <0.7)
  CI50 inhibition: T (T=0.5 to <0.7)
  Synergy Score growth inhibition: A3 (A3=>3)
  Synergy Score inhibition: A2 (A2=1 to <3)
[8]
  CI50 growth inhibition: T (T=0.5 to <0.7)
  CI50 inhibition: T (T=0.5 to <0.7)
  Synergy Score growth inhibition: A3 (A3=>3)
  Synergy Score inhibition: A2 (A2=1 to <3)
[9]
  CI50 growth inhibition: T (T=0.5 to <0.7)
  CI50 inhibition: S (S=0.01 to <0.5)
  Synergy Score growth inhibition: A3 (A3=>3)
  Synergy Score inhibition: A2 (A2=1 to <3)
[10]
  CI50 growth inhibition: S (S=0.01 to <0.5)
  CI50 inhibition: T (T=0.5 to <0.7)
  Synergy Score growth inhibition: A3 (A3=>3)
  Synergy Score inhibition: A2 (A2=1 to <3)
[11]
  CI50 growth inhibition: U (U=0.7 to <1)
  CI50 inhibition: U (U=0.7 to <1)
  Synergy Score growth inhibition: A2 (A2=1 to <3)
  Synergy Score inhibition: A2 (A2=1 to <3)
[12]
  CI50 growth inhibition: T (T=0.5 to <0.7)
  CI50 inhibition: U (U=0.7 to <1)
  Synergy Score growth inhibition: A1 (A1=0.0001 to <1)
  Synergy Score inhibition: A1 (A1=0.0001 to <1)
[13]
  CI50 growth inhibition: U (U=0.7 to <1)
  CI50 inhibition: T (T=0.5 to <0.7)
  Synergy Score growth inhibition: A3 (A3=>3)
  Synergy Score inhibition: A2 (A2=1 to <3)
[14]
  CI50 growth inhibition: W (W=≥1)
  Synergy Score growth inhibition: A1 (A1=0.0001 to <1)
  Synergy Score inhibition: A1 (A1=0.0001 to <1)
[15]
  CI50 growth inhibition: S (S=0.01 to <0.5)
  CI50 inhibition: U (U=0.7 to <1)
  Synergy Score growth inhibition: A2 (A2=1 to <3)
  Synergy Score inhibition: A1 (A1=0.0001 to <1)
[16]
  CI50 growth inhibition: S (S=0.01 to <0.5)
  CI50 inhibition: S (S=0.01 to <0.5)
  Synergy Score growth inhibition: A1 (A1=0.0001 to <1)
  Synergy Score inhibition: A1 (A1=0.0001 to <1)
[17]
  CI50 growth inhibition: S (S=0.01 to <0.5)
  CI50 inhibition: T (T=0.5 to <0.7)
  Synergy Score growth inhibition: A2 (A2=1 to <3)
  Synergy Score inhibition: A2 (A2=1 to <3)
[18]
  CI50 growth inhibition: T (T=0.5 to <0.7)
  CI50 inhibition: T (T=0.5 to <0.7)
  Synergy Score growth inhibition: A3 (A3=>3)
  Synergy Score inhibition: A2 (A2=1 to <3)
[19]
  CI50 growth inhibition: U (U=0.7 to <1)
[20]
  CI50 inhibition: W (W=≥1)
  Synergy Score growth inhibition: A3 (A3=>3)
  Synergy Score inhibition: A1 (A1=0.0001 to <1)
[21]
  CI50 growth inhibition: U (U=0.7 to <1)
  CI50 inhibition: W (W=≥1)
  Synergy Score growth inhibition: A2 (A2=1 to <3)
  Synergy Score inhibition: A1 (A1=0.0001 to <1)
